Test results as given in US20260108561A1, “COMPOSITION FOR CELL TRANSPLANTATION THERAPY AND THE USE THEREOF” (NATIONAL UNIVERSITY OF SINGAPORE, priority 2022, published 2026).

B1: CCL5: chemokine ligand 5, ligand of CCR5 (protein, UniProt P13501 24-91, looked up)
C-C motif chemokine 5: SPYSSDTTPCCFAYIARPLPRAHIKEYFYTSGKCSNPAVVFVTRKNRQVCANPEKKWVREYINSLEMS
B2: CCL4: chemokine ligand 4, ligand of CCR5 (protein, UniProt P13236 24-92, looked up)
C-C motif chemokine 4: APMGSDPPTACCFSYTARKLPRNFVVDYYETSSLCSQPAVVFQTKRSKQVCADPSESWVQEYVYDLELN
B3: CCL3: chemokine ligand 3, ligand of CCR5 (protein, UniProt P10147 24-92, looked up)
C-C motif chemokine 3: SLAADTPTACCFSYTSRQIPQNFIADYFETSSQCSKPGVIFLTKRSRQVCADPSEEWVQKYVSDLELSA

How the values were obtained:
[1] = tested on: CCR5, CCL3, CCL4, and CCL5 protein expression; assay: Western blotting of CCR5 and CCL3/4/5 in transplanted cortical tissue; format: in vivo, SCID mice; settings: day 44 after ischemic lesion / 30 days post-transplantation; normalized to GAPDH
Method: Animals were anaesthetized and perfused with cold PBS at 2, 14 and 44 days after stroke. The injured cortices or grafts (an area with a radius of 1 mm from the epicenter) were dissected manually under a stereomicroscope (Zeiss) and stored at −80° C.
NPCs and neurons were washed using PBS and resuspended in RIPA buffer with protease inhibitor and phosphatase inhibitor. Samples were collected to 1.5 mL tubes on ice for 15 mins. For tissue samples, extracts were sonicated in cold RIPA buffer with protease/phosphatase inhibitors. All samples were quantified using Quick Start™ Bradford Protein Assay (Bio-RAD), and then Laemmli buffer (Bio-RAD) was added to each tube. Samples were heated at 95° C. for 5 mins and stored at −80° C. Total 15 μg of extract was loaded to each well on a 10% Bis-Tris pre-casted gel for electrophoresis.
After running at 120 V for 40 mins, proteins were transferred to PVDF membranes at 400 mA for 30 mins. […] Then membranes were incubated with primary antibodies overnight at 4° C.: anti-CCR5 (1:1000, Abcam, ab110103), anti-CCL3 (1:1000, Abcam, ab259372), anti-CCL4 (1:1000, Abcam, EP521Y), anti-CCL5 (1:1000, Thermo Fisher Scientific, 701030), anti-GAPDH (1:5000, Thermo Fisher Scientific, MA5-15738). The membranes were washed three times by 0.1% TBST and incubated with corresponding secondary antibodies at room temperature for 1 hour. The protein bands were presented by Enhanced Chemiluminescence Substrate (Promega) and visualized in Bio-RAD Chemidoc system. All intensity of bands was analysed by ImageJ software and normalized to corresponding GAPDH bands.

[2] = tested on: grafted NPCs in the ischemic core; assay: Survival and differentiation of NPCs transplanted into the ischemic core of photothrombotic stroke mice (immunohistochemistry, stereology); format: in vivo, SCID mice; settings: for Cleaved-caspase3 immunostaining in grafted cells / Grafted (GFP+) cells in the stroke cavity: 7 days post transplantation; for Grafted (GFP+) cells in the stroke cavity: NPCs injected into ischemic core 2 weeks after stroke; for Gross appearance of the cortex: 30 days post transplantation; for Survival of grafted NPCs (overall conclusion): NPCs transplanted into the ischemic core
Method: All animal studies were performed in accordance with the institutional animal care and use committee at Duke-NUS Medical School. Ischemic strokes in adult (10-12 weeks) male SCID mice were induced through photo-thrombosis. Briefly, Rose Bengal was administered intravenously at a dose of 0.1 mg/g per mouse. Mouse skull was exposed under 2% isoflurane anaesthesia. The right motor cortex (anterior-posterior [AP]=+2 mm, lateral [L]=+1 mm) received a 2.5-mm diameter illumination of cold light through the intact skull for 15 min. Animals were randomly grouped and transplanted with forebrain glutamatergic precursors.
Animals were sacrificed with a lethal dose of pentobarbital (250 mg/kg) and immediately perfused with PBS followed by 4% cold paraformaldehyde (PFA). The brain samples were fixed in cold PFA for 2 hours and immersed in 30% sucrose at 4° C. for around 4 days until sunk. Serial coronal (1.54 mm to-0.22 mm from Bregma) sections were collected on a freezing microtome at a 40-μm thickness and stored at −20° C. For immunostaining, sections were incubated with blocking solution containing 10% normal donkey serum and 0.2% Triton-100 for 1 h at room temperature. Then sections were incubated with primary antibodies overnight at 4° C.
To quantify the population of DCX, SOX2, Ki67, NF and NeuN positive cells to total grafted cells (eGFP and Hoechst co-labelled), one brain slice was selected from every 6 serial slices on for stereological counting on Zeiss M1 Microscope with Stereo Investigator software (MBF Bioscience). In brief, immunolabeled slices were scanned on Zeiss M1 Microscope, grafts area was contoured manually, and then corresponding fluorescence labelled cells were unbiasedly counted. Population of cleaved-caspase3 expressing cells to total grafted cells was counted with ImageJ software. Data were replicated 4 to 6 times per group. To quantify the population of Brn2, Ctip2 and Foxp2 expressing cells to total GFP^+ cells on coverslips, all coverslips were scanned and captured by 20× objective with a confocal microscope (Nikon), and then was counted with ImageJ software. Data were replicated three times. All data were expressed as means±SEM.

NPCs = assay: Apoptosis of cultured NPCs (cleaved-caspase3, TUNEL) under CCR5 ligands and CCR5 blockade; format: cell-based, Human; settings: for Proportion of cleaved-caspase3+ cells in NPCs: single ligand 300 ng/mL, compared with the control group
Method: Induction of forebrain glutamate NPCs was done using the following procedure. Briefly, H9 hESCs or eGFP H9 hESCs were cultured on 6-well plates with Matrigel/vitronectin coated for one week. ESC colonies were gently blown off by 1 mL pipettes to form cell aggregates at day 0. Cell aggregates were cultured in flasks for 7 days with the neural induction medium (NIM) consisting of DMEM/F12, 1×N2 supplement, 1×NEAA, 2-μM SB431542, and 2-μM DMH-1. Cell aggregates were adhered to 6-well plates in the presence of NIM with 5% FBS for 6 hours, and then fresh NIM was changed. The aggregates were fed with NIM till neural rosette formation at day 16. The rosettes were gently blown off using 1 mL pipettes and suspended in flasks with NIM for 7 days. Then, NIM was changed every four days from day 23. The neural precursor cells (NPCs) were maintained in NIM till transplantation or immunostaining. NPCs were digested into single cells using TrypLE for 3 min at day 49. After one additional day of culture in NIM supplemented with 1×B27 and 100 nM compound E, the NPCs were collected for transplantation in ischemic stroke models. B-27 supplement is a defined yet complex mixture of antioxidant enzymes, proteins, vitamins, and fatty acids that are combined in optimized ratios to support neuronal survival in culture. Compound E is a γ-secretase inhibitor. For immunostaining, NPCs were seeded on glass coverslips and staining was performed after one-week culture.
(§1) To test the effects of CCR5 activation on NPCs and neurons, cells were seeded on Matrigel coated coverslips or 6-well plates and treated with overdose (300 ng/mL) ligands of CCR5. CCL3, CCL4, CCL5 and their combination (CCL3/4/5) were respectively added into NIM every other day. After four-day treatment, NPCs or neurons were collected for staining or immunoblotting.
(§2) 1×10^^5 NPCs were seeded on coverslips in each well of 24-well plate for two days to 50% confluency upon transduction at 37° C. in a humidified 5% C02 incubator. The lentiviral shRNAs (MOIs of 20) were used to infect NPCs overnight at 37° C. The medium containing lentiviral particles was removed from wells and replaced with […] fresh pre-warmed NIM. The infected NPCs were collected for immunostaining or western blotting at 5 days after transduction.
Sections were subsequently washed and incubated with corresponding secondary antibodies for 1 h at room temperature. Immunolabeled sections were mounted by Fluoromount-G with Hoechst. For TUNEL staining, cells on coverslips were fixed in PBS with 4% PFA for 30 mins, and then incubated with Terminal Deoxynucleotidyl Transferase (TdT) Equilibration buffer (Elabscience) at 37° C. for 30 mins. NPCs were incubated in labeling solution (Elabscience) with TdT enzyme at 37° C. for 1 hour.

[3] = tested on: neurons in the penumbra area; settings: 100 mg/kg, i.p. daily; cited from earlier work
CCR5 = molecular target: T1, CCR5 (Homo sapiens, UniProt P51681); assay: CCR5 expression on cultured NPCs (immunostaining, Western blotting); format: cell-based; settings: immunostaining and Western blotting
T1 construct: endogenous in cells; host or cells: NPCs, immature and mature neurons differentiated from human H9 / eGFP-H9 embryonic stem cells
T1 sequence (P51681 whole entry): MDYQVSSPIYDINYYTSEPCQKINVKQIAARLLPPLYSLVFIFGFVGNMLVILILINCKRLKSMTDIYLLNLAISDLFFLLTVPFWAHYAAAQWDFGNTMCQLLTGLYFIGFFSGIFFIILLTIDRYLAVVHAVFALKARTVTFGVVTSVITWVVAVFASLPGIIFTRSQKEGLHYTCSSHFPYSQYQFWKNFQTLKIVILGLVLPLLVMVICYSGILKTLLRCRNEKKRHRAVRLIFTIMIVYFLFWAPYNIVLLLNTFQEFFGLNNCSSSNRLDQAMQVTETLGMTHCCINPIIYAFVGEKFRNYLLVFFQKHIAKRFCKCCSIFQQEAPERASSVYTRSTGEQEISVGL
Method: as §1, §2
NPCs and neurons were washed using PBS and resuspended in RIPA buffer with protease inhibitor and phosphatase inhibitor. Samples were collected to 1.5 mL tubes on ice for 15 mins. […] All samples were quantified using Quick Start™ Bradford Protein Assay (Bio-RAD), and then Laemmli buffer (Bio-RAD) was added to each tube. […]
After running at 120 V for 40 mins, proteins were transferred to PVDF membranes at 400 mA for 30 mins. […] All intensity of bands was analysed by ImageJ software and normalized to corresponding GAPDH bands.

Molecule | CCR5 level in transplanted cortical tissue [1] | Level of CCL3, 4, 5 in transplanted cortical tissue [1] | Cleaved-caspase3 immunostaining in grafted cells [2] | Grafted (GFP+) cells in the stroke cavity [2] | Gross appearance of the cortex [2] | Survival of grafted NPCs (overall conclusion) [2] | Proportion of cleaved-caspase3+ cells in NPCs (NPCs) | also measured
Maraviroc [reference compound] | did not downregulate | did not show obvious difference | strong fluorescence | few or no GFP^+ cells | collapsed cortex | insufficient to improve the survival of grafted NPCs | – | TUNEL+ cell population in NPCs under CCR5 blockade (NPCs; apoptosis induced by CCLs): reduced the proportion of TUNEL^+ NPCs; Survival of neurons in the penumbra after stroke [3]: promoted the survival of those neurons and their synaptic connections; Expression of CCR5 in NPCs under CCR5 blockade (CCR5): without reducing the expression of CCR5
fibrinogen | did not downregulate | did not show obvious difference | strong fluorescence | observed in the stroke cavity | collapsed cortex | insufficient to improve the survival of grafted NPCs | – | Fate of grafted cells ([2]; one month post-transplantation): some surviving cells, which did not proliferate and became GFAP positive astrocytes
B1 | – | – | – | – | – | – | increased | –
B2 | – | – | – | – | – | – | increased | –
B3 | – | – | – | – | – | – | increased | –
